Data: paper PMC6934184, “Selective DNA-PKcs inhibition extends the therapeutic index of localized radiotherapy and chemotherapy” (The Journal of Clinical Investigation, 2019)

Target: T1, CSNK1G1 (CK1 gamma 1) (Homo sapiens, UniProt Q9HCP0)
T1 construct: purchased Thermo Fisher Scientific (Life Technologies) SelectScreen
Assay: SelectScreen Z'LYTE
Type: biochemical
Outline: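 Compound tested in SelectScreen activity assays, Z'LYTE for CSF1R, CDK1/cyclin B and MAP2K6 and Adapta for CAMK1. ATP for CAMK1 was listed as 10, and Km app was used for CSF1R. Results are expressed in percent.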

T1 sequence (Q9HCP0 whole entry): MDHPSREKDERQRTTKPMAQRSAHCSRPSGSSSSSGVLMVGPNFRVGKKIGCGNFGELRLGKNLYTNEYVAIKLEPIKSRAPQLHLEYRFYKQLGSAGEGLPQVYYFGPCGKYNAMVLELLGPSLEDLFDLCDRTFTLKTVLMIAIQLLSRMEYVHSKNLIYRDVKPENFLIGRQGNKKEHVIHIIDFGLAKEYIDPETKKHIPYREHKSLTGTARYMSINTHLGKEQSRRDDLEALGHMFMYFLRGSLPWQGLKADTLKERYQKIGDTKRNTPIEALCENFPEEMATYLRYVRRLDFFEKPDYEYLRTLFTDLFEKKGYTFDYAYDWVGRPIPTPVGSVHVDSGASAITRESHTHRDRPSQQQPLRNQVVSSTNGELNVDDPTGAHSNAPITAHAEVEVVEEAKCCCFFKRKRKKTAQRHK

CN(C(=O)CN1CCOCC1)c1ccc2sc3c(-c4cccc5c(=O)cc(N6CC7CCC(C6)O7)oc45)cccc3c2c1 [NU5455]
inhibition at 1 µM: -9.9%
